One data set has as its system Zika virus. Nature of the data set: Virus yield reduction curves (FIGS. 1E-1G), strain not stated. Type of data set: cell-based. The method, then: (§1) The compounds were administered at a range of concentrations up to 100 μg/ml. Compounds were prepared in MEM just prior to testing. Inhibition of virus replication was determined by microscopic examination of the infected cells for cytopathic effect, increase of neutral red (NR) dye uptake (colorimetric determination), and virus yield reduction. Uninfected cells treated with a compound were assayed as above for cytotoxicity control. The EC50, EC90 and SI (selectivity index) values were determined in Vero76, Huh7 and RD cells as analyzed by the neutral red uptake dye assay and virus yield reduction assays. The results are presented from 3 or more independent experiments (standard deviations not shown. Three Zika virus strains were used in this in vitro study, Malaysia strain P 6-740, Uganda strain MR-766 and Puerto Rico strain PRVABC-59. Cells were maintained under standard conditions.

Data set [1] has as its system Zika virus Uganda MR 766. Nature of the data set: Virus yield reduction (VYR) assay. The class given is cell-based. The conditions noted are these: Zika virus. As for the experimental part: as §1
For data set [2], the system named is Zika virus Malaysia P 6-740. Nature of the data set: Virus yield reduction (VYR) assay. The conditions noted are these: Zika virus. Type of data set: cell-based. As for the experimental part:
as §1

Data set [3] relates to Zika virus Puerto Rico PRVABC59. Nature of the data set: Virus yield reduction (VYR) assay. Type of data set: cell-based. Particulars: Zika virus. The method, then:
as §1

Data set [4] has as its system Zika virus (Malaysia, strain P 6-740). Nature of the data set: Murine Zika virus model, treatment begun 4 h before infection (Example 3). The conditions noted are these: for percentage weight change vs placebo: FIG. 6; for relative virus levels vs placebo: FIG. 7; for survival vs placebo: none surviving past day 20. The method, then:
The agents used in this experiment were compound A (the compound of formula I, where A is NH2 and B is H as the HCL salt) and ribavirin. Compound A was administered IM at 150 mg/kg/day and 300 mg/kg/day, each in a volume of 0.05 ml saline and ribavirin was administered IP at 75 mg/kg/day and 50 mg/kg/day, each in a volume of 0.1 ml saline. IM or IP administration of the daily dose was accomplished in two IM/IP injections of one-half the daily dose each. Mice were administered the first dose of Compound A and ribavirin 4 hours prior to infection with Zika virus and continued the treatment for 8 days post-infection.
In this experiment, Zika virus (Malaysia, strain P 6-740) was administered at a challenge dose of 100 CCID50 (10^3 pfu) per mouse via subcutaneous injection in a 0.1 ml volume.
Mice were monitored for survival 28 days post-virus challenge. Weight change for individual mice were taken on day 0 and every other day through the end of the experiments. Mice were observed daily for signs of disease including conjunctivitis, hunching, and limb weakness or paralysis.
For Zika virus infection and antiviral treatment studies, mice were randomly assigned to groups of 10 animals each. A 10^-3 dilution (10^4.0 pfu/mL) of the virus was prepared in MEM. Mice were challenged s.c. with 0.1 mL of the diluted virus (˜10^3.0 pfu/animal). All compound dosages were based on an average mouse weight of 22 g. Compounds were prepared in sterile saline less than 18 hours prior to initial administration in mice and stored at 4° C. for the duration of the study. Compound A was administered i.m., twice daily (bid) at 300 or 150 mg/kg/d. Ribavirin was given i.p., bid at 75 or 50 mg/kg/d. Treatments began 4 hours prior to virus challenge and continued for 8 days. The identity of the treatment groups was blinded to the technician administering treatments. Mortality was observed twice daily for 28 days, and the weight of each mouse was recorded on day 0 and then every other day from 1-19 days post-virus infection (dpi). Mice were humanely euthanized if they could no longer right themselves or were unresponsive to stimuli.
Fifty to 100 mg of freshly isolated tissue was ground with a pestle in 1 mL TRI Reagent (Sigma-Aldrich, St. Louis, MO) and total RNA was extracted. For the extraction of viral RNA from liquid samples, QlAamp Viral RNA Mini Spin kit was used according to the manufactures instructions (Qiagen, Valencia, CA). Extracted RNA was eluted with nuclease-free water and was amplified by a quantitative real-time RT-PCR using the Logix Smart Zika Test developed by Co-Diagnostics, Inc. (Bountiful, UT). Five μL of the master mix containing a set of primers and Rapid Probe, labeled with a FAM fluorophore and DABCYL quencher, was mixed with 2-5 μL of RNA and an appropriate volume of water for a final reaction volume of 10 μl. RNA was first reverse transcribed for 10 minutes at 55° C., followed by strand separation by heating to 95° C. for 20 seconds. The PCR reaction consisted of 40 cycles at 95° C. for 1 second and 55° C. for 20 seconds. A standard curve was generated with a synthetic RNA spanning the region of amplification and it was used to calculate the number of genome equivalents of the unknown samples.

In data set [5] the test system is Zika virus Uganda MR 766. Nature of the data set: CPE reduction assay (neutral red uptake). The class given is cell-based. Particulars: Zika virus. The method, then:
as §1

Data set [6] concerns Zika virus Malaysia P 6-740. Nature of the data set: CPE reduction assay (neutral red uptake). The class given is cell-based. Particulars: Zika virus. The method, then:
as §1

Data set [7] concerns Zika virus Puerto Rico PRVABC59. Nature of the data set: CPE reduction assay (neutral red uptake). Type of data set: cell-based. The conditions noted are these: Zika virus. As for the experimental part:
as §1

Data set [8] is described as follows: Phase 1 study of intramuscular injection in healthy human subjects (Example 8). Type of data set: in vivo. Particulars: Compound A 4 mg/kg IM with lidocaine. The method, then:
A phase 1 double-blind, placebo-controlled, dose-ranging study was conducted to evaluate the safety, tolerability, and pharmacokinetics of Compound A administered by intramuscular injection (IM) in healthy human subjects. The study was conducted in two parts. In part 1, subjects received a single dose of Compound A at doses from 0.3 mg/kg to 10 mg/kg via IM administration. Additionally, the effect of lidocaine administration (co-administered with Compound A at a dose of 4 mg/kg) on alleviation of pain associated with injection was also evaluated. In part 2, subjects received Compound A for 7 days (q.d.) at doses of 2.5 mg/kg/day, 5 mg/kg/day or 10 mg/kg/day via IM administration. 50 subjects received single doses of Compound A in part 1 (12 subjects received placebo) and 23 subjects received multiple doses of Compound A in part 2 (6 subjects received placebo). All planned cohorts were completed.
Eligible subjects were adults of either sex ages 18 to 50. […]
The plasma concentration time profile of Compound A was determined for each subject in part 2 (results expressed as ng/ml Compound A). Blood samples were taken on Day 1 prior to administration of the first dose and at 1, 2, 3, 4, 6, 8, 10, 12, 16 and 24 hours after administration of the first dose of Compound A and on Day 7 prior to administration of the last dose of Compound A and at 1, 2, 3, 4, 6, 8, 10, 12, 16, 24, 36, 48, 72 and 96 hours after administration of the last dose of Compound A. Plasma samples were obtained from the blood samples and the concentration of Compound A determined.

≈ marks a conversion by molar mass, not a printed value. Where two headings read alike, the source gives them in different places. Bounds are passed on as bounds.

The values that follow come from patent US11975003B2, “Methods and compositions for treatment of Zika virus infection” (priority 2016, dated 2024).

Consider `NC(=O)c1ncn([C@@H]2O[C@H](CO)[C@@H](O)[C@H]2O)n1` [Ribavirin, reference compound], for which the “antiviral activity in virus yield reduction” value was “confirmed the antiviral activity” in the data set on Zika virus (Huh-7 cells, FIG. 1F) and “confirmed the antiviral activity” in the data set on Zika virus (RD cells, FIG. 1G). Further, in the data set with Zika virus (Vero76 cells, FIG. 1E), the “activity in VYR studies” value was “not active”. Further, the concentration for an effect of 90% (EC90) in the data set on Zika virus Uganda MR 766 [1] (Huh-7 cells) is 9.52 ± 2.1 µg/mL (≈ 39 µM); in the data set on Zika virus Uganda MR 766 [1] (RD cells) it was 13.2 ± 1.7 µg/mL (≈ 54.1 µM); with Zika virus Uganda MR 766 [1] (Vero 76, Vero76 cells) it was 198 ± 172 µg/mL (≈ 811 µM); in [2] (Huh-7 cells), 13.1 ± 0.5 µg/mL (≈ 53.6 µM); in data set [2] (Vero 76, Vero76 cells) it was 195 ± 63.6 µg/mL (≈ 799 µM); in [3] (Vero 76, read-out: VYR assay EC90), at least 281 µg/mL. The EC90 in data set [3] (Puerto Rico PRVABC59, Huh-7 cells, read-out: VYR assay EC90) was found to be 10.4 ± 0.8 µg/mL (≈ 42.6 µM); in data set [3] (Puerto Rico PRVABC59, RD cells, read-out: VYR assay EC90), 46.3 ± 8.6 µg/mL (≈ 190 µM). Further, the “percentage weight change vs placebo” value in [4] (50 mg/kg/day IP (group 7)) and in data set [4] (75 mg/kg/day IP (group 5)) was “no significant improvement” throughout. Also, the “relative virus levels vs placebo” value in [4] (50 mg/kg/day IP (group 7)) and in data set [4] (75 mg/kg/day IP (group 5)) was “failed to decrease relative virus levels” throughout. The survival vs placebo result is reported as “did not increase the survival” in [4] (50 mg/kg/day IP bid x 8 days, begun -4 h (group 7)) and “did not increase the survival” in data set [4] (75 mg/kg/day IP bid x 8 days, begun -4 h (group 5)). Also, the “weight change in sham-infected mice at day 19” value in [4] (75 mg/kg/day IP, sham infection) is reported as “no significant weight change”. The EC50 came to 8.9 ± 7.9 µg/mL (≈ 36.4 µM) with Zika virus Uganda MR 766 [5] (Huh-7 cells); 9.3 ± 5.2 µg/mL (≈ 38.1 µM) with Zika virus Uganda MR 766 [5] (RD cells); 85 ± 77.9 µg/mL (≈ 348 µM) in the data set on Zika virus Uganda MR 766 [5] (Vero 76, Vero76 cells); 7.2 ± 2.8 µg/mL (≈ 29.5 µM) in data set [6] (Huh-7 cells); 143 ± 85 µg/mL (≈ 586 µM) in [6] (Vero 76, Vero76 cells); 23 ± 16.8 µg/mL (≈ 94.2 µM) in data set [7] (Vero 76, read-out: CPE red. assay EC50). Also, the EC50 in data set [7] (Puerto Rico PRVABC59, Huh-7 cells, read-out: CPE red. assay EC50) is 3.8 ± 1.6 µg/mL (≈ 15.6 µM); in data set [7] (Puerto Rico PRVABC59, RD cells, read-out: CPE red. assay EC50), 10 ± 6 µg/mL (≈ 40.9 µM).
`CCN(CC)CC(=O)Nc1c(C)cccc1C` [lidocaine, reference compound]: the “injection site pain on co-administration with Compound A” value in data set [8] was “ameliorate injection site pain”.
